Measurements as given in article PMC8689648, “Binding Affinity Determines Substrate Specificity and Enables Discovery of Substrates for N-Myristoyltransferases” (ACS Catalysis, 2021).
Like-named read-outs stand apart in the source and are kept apart here.

Columns and labels:
[1] = target: T1, N-myristoyltransferase 1 (NMT1) (Homo sapiens, UniProt P30419); assay: steady-state kinetics with ARF6 peptide (HPLC, MS); Kia from ordered Bi-Bi global fit; type: biochemical
T1 sequence (P30419 1-496): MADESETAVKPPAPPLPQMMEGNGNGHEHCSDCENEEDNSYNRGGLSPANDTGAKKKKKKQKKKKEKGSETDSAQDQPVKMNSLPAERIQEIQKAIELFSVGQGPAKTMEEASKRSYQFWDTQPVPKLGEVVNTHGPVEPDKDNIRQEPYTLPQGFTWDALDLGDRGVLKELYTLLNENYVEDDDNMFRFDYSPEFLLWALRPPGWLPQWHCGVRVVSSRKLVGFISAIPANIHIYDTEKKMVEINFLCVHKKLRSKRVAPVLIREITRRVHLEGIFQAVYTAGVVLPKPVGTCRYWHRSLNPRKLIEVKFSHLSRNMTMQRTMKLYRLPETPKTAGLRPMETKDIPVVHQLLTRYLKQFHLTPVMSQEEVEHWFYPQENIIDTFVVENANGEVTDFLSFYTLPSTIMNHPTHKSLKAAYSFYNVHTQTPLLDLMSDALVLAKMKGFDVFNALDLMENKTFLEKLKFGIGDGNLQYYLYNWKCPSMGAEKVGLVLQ

[2] = target: T1, N-myristoyltransferase 1 (NMT1); assay: steady-state inhibition kinetics of myristoylation of ARF6 peptide (HPLC), recombinant NMT1; type: biochemical
[3] = target: T1, N-myristoyltransferase 1 (NMT1); assay: steady-state inhibition kinetics of acetylation of ARF6 peptide (HPLC), recombinant NMT1; type: biochemical
[4] = target: T2, human N-myristoyltransferase 1 (NMT1) (human) (UniProt P30419)
T2 sequence: T1 sequence (P30419 1-496)

With `CC(=O)SCCNC(=O)CCNC(=O)[C@H](O)C(C)(C)COP(=O)(O)OP(=O)(O)OC[C@H]1O[C@@H](n2cnc3c(N)ncnc32)[C@H](O)[C@@H]1OP(=O)(O)O` [Ac-CoA, acetyl-CoA] as the molecule, how does the Kd ([1]; read-out: Kia) read?
Its Kd is 2400 ± 500 nM.

How did the Kd [1] turn out when `CCCCCCCCCCCCCC(=O)SCCNC(=O)CCNC(=O)[C@H](O)C(C)(C)COP(=O)(O)OP(=O)(O)OC[C@H]1O[C@@H](n2cnc3c(N)ncnc32)[C@H](O)[C@@H]1OP(=O)(O)O` [Myr-CoA, myristoyl-CoA] was run?
Its Kd is 200 ± 100 nM.

How did the Ki [2] turn out when `CCCCCCCCCCCCCC(=O)CSCCNC(=O)CCNC(=O)[C@H](O)C(C)(C)COP(=O)(O)OP(=O)(O)OC[C@H]1O[C@@H](n2cnc3c(N)ncnc32)[C@H](O)[C@@H]1OP(=O)(O)O` [S-(2-oxo)pentadecyl-CoA] was run?
Its Ki is 14.7 ± 2.2 nM.

With `CC(=O)CSCCNC(=O)CCNC(=O)[C@H](O)C(C)(C)COP(=O)(O)OP(=O)(O)OC[C@H]1O[C@@H](n2cnc3c(N)ncnc32)[C@H](O)[C@@H]1OP(=O)(O)O` [S-acetonyl-CoA] as the molecule, how does the Ki [3] read?
Its Ki is 10100 ± 2200 nM.

B1: ARF6 N-terminal peptide (…) (peptide)
peptide: GKVLSKIFWW
With B1 as the molecule, how does the Kpep (Michaelis constant Km for ARF6 peptide) of NMT1-catalysed acetylation, Ac-CoA as the first substrate; 50 mM TriCl pH 8.0, 37 °C [4] read?
The Kpep (Michaelis constant Km for ARF6 peptide) of NMT1-catalysed acetylation, Ac-CoA as the first substrate; 50 mM TriCl pH 8.0, 37 °C was 40 μM.

And the Kpep (Michaelis constant Km for ARF6 peptide) of NMT1-catalysed myristoylation, Myr-CoA as the first substrate; 50 mM TriCl pH 8.0, 37 °C [4]?
The Kpep (Michaelis constant Km for ARF6 peptide) of NMT1-catalysed myristoylation, Myr-CoA as the first substrate; 50 mM TriCl pH 8.0, 37 °C was 5 μM.
